As usually defined, the IC50 is the concentration at which inhibition is half-maximal.

Here are results for 20 molecules from patent US8138183B2, “Morpholino pyrimidine derivatives used in diseases linked to mTOR kinase and/or PI3K” (AstraZeneca AB, priority 2007, dated 2012).

recombinant mTOR, sequence (P42345 1362-2549): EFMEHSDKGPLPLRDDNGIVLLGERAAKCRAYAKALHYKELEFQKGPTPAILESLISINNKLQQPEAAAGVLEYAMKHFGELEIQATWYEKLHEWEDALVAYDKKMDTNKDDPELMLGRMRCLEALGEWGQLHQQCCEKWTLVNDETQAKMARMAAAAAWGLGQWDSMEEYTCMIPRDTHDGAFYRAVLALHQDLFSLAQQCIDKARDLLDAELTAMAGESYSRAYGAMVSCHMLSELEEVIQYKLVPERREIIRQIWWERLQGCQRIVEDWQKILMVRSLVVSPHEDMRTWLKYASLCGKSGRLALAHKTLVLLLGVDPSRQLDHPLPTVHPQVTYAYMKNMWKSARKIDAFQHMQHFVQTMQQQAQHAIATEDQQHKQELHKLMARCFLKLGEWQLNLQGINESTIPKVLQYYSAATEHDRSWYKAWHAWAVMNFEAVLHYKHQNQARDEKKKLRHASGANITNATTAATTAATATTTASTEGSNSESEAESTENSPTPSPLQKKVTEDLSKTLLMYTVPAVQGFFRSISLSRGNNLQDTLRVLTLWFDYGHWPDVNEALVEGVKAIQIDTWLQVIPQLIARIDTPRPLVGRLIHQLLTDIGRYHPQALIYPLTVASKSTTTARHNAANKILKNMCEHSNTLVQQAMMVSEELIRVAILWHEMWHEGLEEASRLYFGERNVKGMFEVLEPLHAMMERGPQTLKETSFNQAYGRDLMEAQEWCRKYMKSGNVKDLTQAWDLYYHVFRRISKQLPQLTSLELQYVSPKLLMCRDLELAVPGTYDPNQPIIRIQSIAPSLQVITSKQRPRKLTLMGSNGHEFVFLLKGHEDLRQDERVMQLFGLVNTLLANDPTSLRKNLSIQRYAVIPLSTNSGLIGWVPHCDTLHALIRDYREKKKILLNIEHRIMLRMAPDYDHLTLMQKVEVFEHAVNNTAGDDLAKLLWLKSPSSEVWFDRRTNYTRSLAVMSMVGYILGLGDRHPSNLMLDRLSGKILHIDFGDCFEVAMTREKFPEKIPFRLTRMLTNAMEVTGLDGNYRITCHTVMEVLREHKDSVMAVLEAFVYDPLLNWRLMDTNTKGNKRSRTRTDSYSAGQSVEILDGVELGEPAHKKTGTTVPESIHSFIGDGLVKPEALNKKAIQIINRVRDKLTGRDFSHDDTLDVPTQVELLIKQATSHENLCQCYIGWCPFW

The assay concerns the target recombinant mTOR (Homo sapiens, UniProt P42345). As to the kind of experiment: In Vitro mTOR Kinase Assay (Echo), Test (a)(ii) (AlphaScreen). To be noted: Echo acoustic dispensing. It counts as biochemical. Here is the method:
(a)(ii) In Vitro mTOR Kinase Assay (Echo)
The assay used AlphaScreen technology (Gray et al., Analytical Biochemistry, 2003, 313: 234-245) to determine the ability of test compounds to inhibit phosphorylation by recombinant mTOR.
The HEK293 FLAG-tagged mTOR (1362-2549) stable cell line was routinely maintained at 37° C. with 5% CO2 up to a confluency of 70-90% in Dulbecco's modified Eagle's growth medium (DMEM; Invitrogen Limited, Paisley, UK Catalogue No. 41966-029) containing 10% heat-inactivated foetal calf serum (FCS; Sigma, Poole, Dorset, UK, Catalogue No. F0392), 1% L-glutamine (Gibco, Catalogue No. 25030-024) and 2 mg/ml Geneticin (G418 sulfate; Invitrogen Limited, UK Catalogue No. 10131-027). Following expression in the mammalian HEK293 cell line, expressed protein was purified using the FLAG epitope tag using standard purification techniques.
Aliquots ([…]) of each compound dilution were acoustically […] using a Labcyte Echo 550 into a well of a Greiner 384-well low volume (LV) white polystyrene plate (Greiner Bio-one). A […] mixture of recombinant purified mTOR enzyme, 1 μM biotinylated peptide substrate (Biotin-Ahx-[…]NH2; Bachem UK Ltd), ATP (20 μM) and a buffer solution [comprising Tris-HCl pH7.4 buffer (50 mM), EGTA (0.1 mM), bovine serum albumin (0.5 mg/mL), DTT (1.25 mM) and manganese chloride (10 mM)] was incubated at room temperature for […].
These assay solutions were incubated for 2 hours at room temperature.
Each reaction was stopped by the addition of […] of a mixture of EDTA (50 mM), bovine serum albumin (BSA; 0.5 mg/mL) and Tris-HCl pH7.4 buffer (50 mM) containing
p70 S6 Kinase (T389) 1A5 Monoclonal Antibody (Cell Signalling Technology, Catalogue No. 9206B) and AlphaScreen Streptavidin donor and Protein A acceptor beads (200 ng; Perkin Elmer, Catalogue No. 6760002B and 6760137R respectively) were added and the assay plates were left overnight at room temperature in the dark. The resultant signals arising from laser light excitation at 680 nm were read using a Packard Envision instrument.
The phosphorylated biotinylated peptide that is associated with AlphaScreen Streptavidin donor beads forms a complex with the p70 S6 Kinase (T389) 1A5 Monoclonal Antibody that is associated with Alphascreen Protein A acceptor beads. Upon laser light excitation at 680 nm, the donor bead : acceptor bead complex produces a signal that can be measured. Accordingly, the presence of mTOR kinase activity results in an assay signal. In the presence of an mTOR kinase inhibitor, signal strength is reduced. mTOR enzyme inhibition for a given test compound was expressed as an IC50 value.
As to `C[C@H]1COCCN1c1cc(C(C)(C)S(=O)(=O)c2ccccc2)nc(-c2ccc(NC(=S)NC3CC3)cc2)n1` [Example 3a, 1-[4-[4-[2-(benzenesulfonyl)propan-2-yl]-6-[(3S)-3-methylmorpholin-4-yl]pyrimidin-2-yl]phenyl]-3-cyclopropylthiourea], the half-inhibitory concentration (IC50) stood at 7.17 nM. The value for `C[C@H]1COCCN1c1cc(C(C)(C)S(=O)(=O)CCCO)nc(-c2ccc(NC(=S)NCCO)cc2)n1` [Example 4a, 3-(2-hydroxyethyl)-1-[4-[4-[2-(3-hydroxypropylsulfonyl)propan-2-yl]-6-[(3S)-3-methylmorpholin-4-yl]pyrimidin-2-yl]phenyl]thiourea] was 15.5 nM. `CCNC(=S)Nc1ccc(-c2nc(N3CCOC[C@@H]3C)cc(C(C)(C)S(=O)(=O)CCCO)n2)cc1` [Example 4c, 3-ethyl-1-[4-[4-[2-(3-hydroxypropylsulfonyl)propan-2-yl]-6-[(3S)-3-methylmorpholin-4-yl]pyrimidin-2-yl]phenyl]thiourea]: the IC50 was 58.5 nM. Turning to `CNC(=S)Nc1ccc(-c2nc(N3CCOC[C@@H]3C)cc(C(C)(C)S(=O)(=O)c3ccccc3)n2)cc1` [Example 3, 1-[4-[4-[2-(Benzenesulfonyl)propan-2-yl]-6-[(3S)-3-methylmorpholin-4-yl]pyrimidin-2-yl]phenyl]-3-methylthiourea], the IC50 worked out at 11 nM. As to `CNC(=S)Nc1ccc(-c2nc(N3CCOC[C@@H]3C)cc(C(C)(C)S(=O)(=O)CCCO)n2)cc1` [Example 4b, 1-[4-[4-[2-(3-hydroxypropylsulfonyl)propan-2-yl]-6-[(3S)-3-methylmorpholin-4-yl]pyrimidin-2-yl]phenyl]-3-methylthiourea], the IC50 was determined as 154 nM. The value for `CCNC(=S)Nc1ccc(-c2nc(N3CCOC[C@@H]3C)cc(C(C)(C)O)n2)cc1` [Example 5c, 3-ethyl-1-[4-[4-(2-hydroxypropan-2-yl)-6-[(3S)-3-methylmorpholin-4-yl]pyrimidin-2-yl]phenyl]thiourea] was 37.4 nM. In the case of `C[C@H]1COCCN1c1cc(C(C)(C)S(C)(=O)=O)nc(-c2ccc(NC(=S)NCCN(C)C)cc2)n1` [Example 2d, 3-(2-dimethylaminoethyl)-1-[4-[4-[(3S)-3-methylmorpholin-4-yl]-6-(2-methylsulfonylpropan-2-yl)pyrimidin-2-yl]phenyl]thiourea], the IC50 came out at 305 nM. The value for `C[C@H]1COCCN1c1cc(C(C)(C)O)nc(-c2ccc(NC(=S)NC3CC3)cc2)n1` [Example 5b, 3-cyclopropyl-1-[4-[4-(2-hydroxypropan-2-yl)-6-[(3S)-3-methylmorpholin-4-yl]pyrimidin-2-yl]phenyl]thiourea] was 38.4 nM; that for `CCNC(=S)Nc1ccc(-c2nc(CS(C)(=O)=O)cc(N3CCOC[C@@H]3C)n2)cc1` [Example 1a, 3-ethyl-1-[4-[4-[(3S)-3-methylmorpholin-4-yl]-6-(methylsulfonylmethyl)pyrimidin-2-yl]phenyl]thiourea] was 17.7 nM; that for `C[C@H]1COCCN1c1cc(CS(C)(=O)=O)nc(-c2ccc(NC(=S)NC3CC3)cc2)n1` [Example 1, 3-Cyclopropyl-1-[4-[4-[(3S)-3-methylmorpholin-4-yl]-6-(methylsulfonylmethyl)pyrimidin-2-yl]phenyl]thiourea] was 19.7 nM. The value for `CNC(=S)Nc1ccc(-c2nc(N3CCOC[C@@H]3C)cc(C(C)(C)S(C)(=O)=O)n2)cc1` [Example 2a, 3-methyl-1-[4-[4-[(3S)-3-methylmorpholin-4-yl]-6-(2-methylsulfonylpropan-2-yl)pyrimidin-2-yl]phenyl]thiourea] was 5.1 nM; that for `C[C@H]1COCCN1c1cc(C(C)(C)O)nc(-c2ccc(NC(=S)NCCO)cc2)n1` [Example 5, 3-(2-Hydroxyethyl)-1-[4-[4-(2-hydroxypropan-2-yl)-6-[(3S)-3-methylmorpholin-4-yl]pyrimidin-2-yl]phenyl]thiourea] was 7.9 nM; that for `CCNC(=S)Nc1ccc(-c2nc(N3CCOC[C@@H]3C)cc(C(C)(C)S(C)(=O)=O)n2)cc1` [Example 2b, 3-ethyl-1-[4-[4-[(3S)-3-methylmorpholin-4-yl]-6-(2-methylsulfonylpropan-2-yl)pyrimidin-2-yl]phenyl]thiourea] was 6.8 nM.

Take `C[C@H]1COCCN1c1cc(C(C)(C)S(=O)(=O)CCCO)nc(-c2ccc(NC(=S)NC3CC3)cc2)n1` [Example 4, 3-Cyclopropyl-1-[4-[4-[2-(3-hydroxypropylsulfonyl)propan-2-yl]-6-[(3S)-3-methylmorpholin-4-yl]pyrimidin-2-yl]phenyl]thiourea]: the IC50 is 161 nM. The value for `CCNC(=S)Nc1ccc(-c2nc(N3CCOC[C@@H]3C)cc(C(C)(C)S(=O)(=O)c3ccccc3)n2)cc1` [Example 3b, 1-[4-[4-[2-(benzenesulfonyl)propan-2-yl]-6-[(3S)-3-methylmorpholin-4-yl]pyrimidin-2-yl]phenyl]-3-ethylthiourea] was 12.4 nM. `C[C@H]1COCCN1c1cc(C(C)(C)S(C)(=O)=O)nc(-c2ccc(NC(=S)NC3CC3)cc2)n1` [Example 2, 3-Cyclopropyl-1-[4-[4-[(3S)-3-methylmorpholin-4-yl]-6-(2-methylsulfonylpropan-2-yl)pyrimidin-2-yl]phenyl]thiourea]: the IC50 came out at 4.77 nM. In the case of `C[C@H]1COCCN1c1cc(CS(C)(=O)=O)nc(-c2ccc(NC(=S)Nc3ccc(F)cc3)cc2)n1` [Example 1d, 3-(4-fluorophenyl)-1-[4-[4-[(3S)-3-methylmorpholin-4-yl]-6-(methylsulfonylmethyl)pyrimidin-2-yl]phenyl]thiourea], the IC50 turned out to be 21.5 nM. Take `CNC(=S)Nc1ccc(-c2nc(N3CCOC[C@@H]3C)cc(C(C)(C)O)n2)cc1` [Example 5a, 1-[4-[4-(2-hydroxypropan-2-yl)-6-[(3S)-3-methylmorpholin-4-yl]pyrimidin-2-yl]phenyl]-3-methylthiourea]: the IC50 stood at 36.7 nM. `COc1ccc(NC(=S)Nc2ccc(-c3nc(CS(C)(=O)=O)cc(N4CCOC[C@@H]4C)n3)cc2)cc1` [Example 1c, 3-(4-methoxyphenyl)-1-[4-[4-[(3S)-3-methylmorpholin-4-yl]-6-(methylsulfonylmethyl)pyrimidin-2-yl]phenyl]thiourea]: the IC50 was determined as 68.8 nM. Take `C[C@H]1COCCN1c1cc(C(C)(C)S(=O)(=O)c2ccccc2)nc(-c2ccc(NC(=S)NCCO)cc2)n1` [Example 3c, 1-[4-[4-[2-(benzenesulfonyl)propan-2-yl]-6-[(3S)-3-methylmorpholin-4-yl]pyrimidin-2-yl]phenyl]-3-(2-hydroxyethyl)thiourea]: the IC50 was found to be 3.08 nM.
